Assay results from ChEMBL document CHEMBL1201862, “PubChem BioAssay data set” (2004).
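Step 1: Grow cells in 96-well plates. Step 2: Expose to compound for 48 hours at 5 concentrations. Step 3: Interpolate endpoints linearly; if unreached, use highest concentration. GI50 = concentration required for 50% inhibition of growth.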 The source made the active and inactive calls. Cut-off read from the data, not from the text of the source: active = GI50 up to about 1.1 µM and inactive = higher.

How the values were obtained:
Experiment in all cases: DTP human tumour cell line panel, 48 h
[1] = system: ACHN
[2] = system: CCRF-CEM
[3] = system: HT-29
[4] = system: Hs-578T
[5] = system: IGROV-1
[6] = system: MCF7
[7] = system: MDA-MB-231
[8] = system: NCI-H226
[9] = system: NCI-H460
[10] = system: NCI-H522
[11] = system: OVCAR-3
[12] = system: OVCAR-5
[13] = system: PC-3
[14] = system: RPMI-8226
[15] = system: RXF 393
[16] = system: SF-295
[17] = system: SNB-75
[18] = system: SR
[19] = system: U-251

O=C(O)COc1c(Cl)cc(Cl)c2cccnc12
GI50 [1]: > 100 µM (inactive) | GI50 [2]: > 100 µM (inactive) | GI50 [3]: > 100 µM (inactive) | GI50 [4]: > 100 µM (inactive) | GI50 [5]: 96.4 µM (inactive) | GI50 [6]: > 100 µM (inactive) | GI50 [7]: > 100 µM (inactive) | GI50 [8]: > 100 µM (inactive) | GI50 [9]: > 100 µM (inactive) | GI50 [10]: > 100 µM (inactive) | GI50 [11]: > 100 µM (inactive) | GI50 [12]: > 100 µM (inactive) | GI50 [13]: > 100 µM (inactive) | GI50 [14]: > 100 µM (inactive) | GI50 [15]: > 100 µM (inactive) | GI50 [16]: > 100 µM (inactive) | GI50 [17]: > 100 µM (inactive) | GI50 [18]: > 100 µM (inactive) | GI50 [19]: > 100 µM (inactive)

COc1ccc(-c2cc(-c3ccccc3)nc(N)n2)c(O)c1
GI50 [1]: 21.1 µM (inactive) | GI50 [2]: 4.59 µM (inactive) | GI50 [3]: > 26.9 µM (inactive) | GI50 [4]: > 100 µM (inactive) | GI50 [5]: 10.6 µM (inactive) | GI50 [6]: 0.984 µM (active) | GI50 [7]: > 26.2 µM (inactive) | GI50 [8]: > 100 µM (inactive) | GI50 [9]: 5.04 µM (inactive) | GI50 [10]: 2.78 µM (inactive) | GI50 [11]: > 49.5 µM (inactive) | GI50 [12]: > 100 µM (inactive) | GI50 [13]: 6.68 µM (inactive) | GI50 [14]: 2.31 µM (inactive) | GI50 [15]: > 100 µM (inactive) | GI50 [16]: > 86.1 µM (inactive) | GI50 [17]: 28.8 µM (inactive) | GI50 [18]: 4.3 µM (inactive) | GI50 [19]: 12.6 µM (inactive)

CCCCCCCCCCCCCCCCCCNc1nc(=O)n(C2CC(O)C(COP(=O)(O)OCC3OC(n4ccc(N)nc4=O)C(O)C3O)O2)cc1F (stereo unspecified)
GI50 [1]: 18.7 µM (inactive) | GI50 [2]: > 100 µM (inactive) | GI50 [3]: 13.1 µM (inactive) | GI50 [4]: > 100 µM (inactive) | GI50 [5]: 30.3 µM (inactive) | GI50 [6]: 6.7 µM (inactive) | GI50 [7]: 27.7 µM (inactive) | GI50 [8]: > 100 µM (inactive) | GI50 [9]: 4.5 µM (inactive) | GI50 [10]: 3.8 µM (inactive) | GI50 [11]: > 100 µM (inactive) | GI50 [12]: 52.6 µM (inactive) | GI50 [13]: 28.6 µM (inactive) | GI50 [14]: > 100 µM (inactive) | GI50 [15]: > 100 µM (inactive) | GI50 [16]: > 100 µM (inactive) | GI50 [17]: > 100 µM (inactive) | GI50 [18]: > 100 µM (inactive) | GI50 [19]: 23.7 µM (inactive)

CC(=O)C(=C(c1ccccc1)c1ccccc1)c1ccccc1
GI50 [1]: > 100 µM (inactive) | GI50 [2]: 40.7 µM (inactive) | GI50 [3]: > 100 µM (inactive) | GI50 [4]: > 100 µM (inactive) | GI50 [6]: > 100 µM (inactive) | GI50 [7]: > 100 µM (inactive) | GI50 [8]: > 100 µM (inactive) | GI50 [9]: > 100 µM (inactive) | GI50 [10]: > 100 µM (inactive) | GI50 [11]: > 100 µM (inactive) | GI50 [12]: > 100 µM (inactive) | GI50 [13]: 45.2 µM (inactive) | GI50 [14]: 52.6 µM (inactive) | GI50 [15]: > 100 µM (inactive) | GI50 [16]: > 100 µM (inactive) | GI50 [17]: 87.7 µM (inactive) | GI50 [18]: 31.8 µM (inactive) | GI50 [19]: > 100 µM (inactive)

C=C(C)C(=O)OC1CC2(C)OC2CC(OC(C)=O)/C(C)=C/C2OC(=O)C(=C)C21 (stereo unspecified)
GI50 [1]: 1.49 µM (inactive) | GI50 [2]: 0.0895 µM (active) | GI50 [3]: 1.31 µM (inactive) | GI50 [4]: 2.3 µM (inactive) | GI50 [5]: 4.17 µM (inactive) | GI50 [6]: 2.33 µM (inactive) | GI50 [7]: 6.49 µM (inactive) | GI50 [8]: 17.6 µM (inactive) | GI50 [9]: 1.73 µM (inactive) | GI50 [10]: 0.124 µM (active) | GI50 [11]: 2.26 µM (inactive) | GI50 [12]: 5.83 µM (inactive) | GI50 [13]: 9.08 µM (inactive) | GI50 [14]: 0.349 µM (active) | GI50 [15]: 2.04 µM (inactive) | GI50 [16]: 16.2 µM (inactive) | GI50 [17]: 15.5 µM (inactive) | GI50 [18]: 1.08 µM (active) | GI50 [19]: 12.5 µM (inactive)

CC1(C)CC(=O)c2c(nc3c(ccc4ccccc43)c2-c2ccc(NC(=O)CCC(=O)Nc3ccc(-c4c5c(nc6c4ccc4ccccc46)CC(C)(C)CC5=O)cc3)cc2)C1
GI50 [1]: > 100 µM (inactive) | GI50 [2]: > 100 µM (inactive) | GI50 [3]: > 100 µM (inactive) | GI50 [4]: > 100 µM (inactive) | GI50 [5]: > 100 µM (inactive) | GI50 [6]: > 100 µM (inactive) | GI50 [7]: > 100 µM (inactive) | GI50 [8]: > 100 µM (inactive) | GI50 [9]: > 100 µM (inactive) | GI50 [10]: > 100 µM (inactive) | GI50 [11]: > 100 µM (inactive) | GI50 [12]: > 100 µM (inactive) | GI50 [13]: > 100 µM (inactive) | GI50 [14]: > 100 µM (inactive) | GI50 [15]: > 100 µM (inactive) | GI50 [16]: > 100 µM (inactive) | GI50 [17]: 25 µM (inactive) | GI50 [18]: > 100 µM (inactive) | GI50 [19]: > 100 µM (inactive)

O=Cc1cc(O)c(O)c(/C=N/n2c3ccccc3c3ccccc32)c1
GI50 [1]: 4.25 µM (inactive) | GI50 [2]: 1.58 µM (inactive) | GI50 [3]: 18.7 µM (inactive) | GI50 [4]: 19.3 µM (inactive) | GI50 [6]: 0.64 µM (active) | GI50 [7]: 7.1 µM (inactive) | GI50 [8]: 12.6 µM (inactive) | GI50 [9]: 6.03 µM (inactive) | GI50 [10]: 2.64 µM (inactive) | GI50 [11]: 2.44 µM (inactive) | GI50 [12]: 17.9 µM (inactive) | GI50 [13]: 10.1 µM (inactive) | GI50 [14]: 2.05 µM (inactive) | GI50 [15]: 5.57 µM (inactive) | GI50 [16]: 8.69 µM (inactive) | GI50 [17]: 2.65 µM (inactive) | GI50 [18]: 2.84 µM (inactive) | GI50 [19]: 6.14 µM (inactive)
